From US11959096B2, “Methods for selective inhibition of pluripotent stem cells” (THE MEDICAL COLLEGE OF WISCONSIN, INC., priority 2014, dated 2024)

Experiments:
[1] = test system: hiPSCs; assay: Cell viability of hiPSCs treated with FK866; format: cell-based, human; conditions: up to 72 hours
Procedure: FIG. 10 presents data regarding FK866 toxicity on human pluripotent stem cells. […] Cell viability data is presented for hiPSCs treated with FK866 for up to 72 hours. […] (B) Cell viability of human pluripotent stem cells 72 hours after treatment initiation with FK866. Cells were treated with a range of concentrations (1 nM to 10 μM) either continuously or for 24 hour pulse.
FIG. 10 presents cell viability data for hiPSCs treated with FK866 (FIG. 9B) for up to 72 hours. […] Therefore, an effective strategy for selectively eliminating pluripotent stem cells is to deplete NAD^+ levels using a NAMPT inhibitor. […] Thus, these compounds will be useful for selectively eliminating tumorigenic cells in cells prepared for transplantation, independent of whether teratoma-causing cells in differentiated cultures are pluripotent or comprise one or more differentiated phenotypes.

[2] = test system: hiPSC (DF6-9-9T); assay: SYTOX Green cell viability assay; format: cell-based, human; conditions: 72 hours treatment; 2.5 μM STF-31, 30 μM WZB117, 20 μM PluriSIn
Procedure: (§1) In Vitro Toxicity Assays: Treatment with small molecules or glucose deprivation was initiated in hESC or hiPSC at 24 and 96 h post-plating and in vitro toxicity assays were performed at specified treatment endpoints 24-96 hours after treatment initiation. […] Neutral red assays for cell viability were performed as previously described. In vitro cell death was determined using SYTOX® Green nucleic acid stain (Life Technologies). Briefly, cells were incubated in 5 μM SYTOX® Green for 30 minutes at 37° C. in a humidified cell incubator with 5% CO2. Percent cell viability was determined by normalizing to replicate cells incubated with 120 μM digitonin (Sigma-Aldrich) and 5 μM SYTOX® Green. Imaging of cell viability was performed using Live/Dead® Viability/Cytotoxicity Kit, for mammalian cells (Life Technologies). Cells were stained for 20 minutes at room temperature with 4 μM Calcein AM to detect viable cells and 2 μM Ethidium Homodimer 1 to detect cells with compromised membranes. Representative images of alterations in cell morphology were acquired on confluent hPSC 24-72 hours after treatment initiation. Imaging was performed with a Nikon Ti-U inverted microscope.

[3] = test system: hiPSC; assay: Live/dead staining (calcein AM / ethidium homodimer-1); format: cell-based, human; conditions: 72 hours, confluent; 2.5 μM STF-31, 30 μM WZB117, 20 μM PluriSIn
Procedure: as §1

[4] = test system: hiPSC (DF6-9-9T); assay: Neutral red cell viability assay in hiPSC; format: cell-based, human; conditions: for elimination of hiPSC: 24 hour treatment, sub-confluent hiPSC; for toxicity: 72 hours
Procedure: Neutral red assays for cell viability were performed as previously described. In vitro cell death was determined using SYTOX® Green nucleic acid stain (Life Technologies). Briefly, cells were incubated in 5 μM SYTOX® Green for 30 minutes at 37° C. in a humidified cell incubator with 5% CO2. […] Imaging of cell viability was performed using Live/Dead® Viability/Cytotoxicity Kit, for mammalian cells (Life Technologies). Cells were stained for 20 minutes at room temperature with 4 μM Calcein AM to detect viable cells and 2 μM Ethidium Homodimer 1 to detect cells with compromised membranes. […] Imaging was performed with a Nikon Ti-U inverted microscope.

[5] = test system: confluent hiPSC (DF6-9-9T); assay: Bright field imaging of cell morphology; format: cell-based, human; conditions: 72 hours, 2.5 μM STF-31, 30 μM WZB117, 20 μM PluriSIn
Procedure: as §1

[6] = test system: confluent hiPSC; assay: Colony formation assay (alkaline phosphatase staining); format: cell-based, human; conditions: 24 hour pulse, cells passaged, cultured 6 days
Procedure: The first iteration was adapted from previously described method, after 24 hours of treatment, hiPSC were detached with Accutase (StemCell Technologies), re-suspended in E8, passed though 12×75 mm tube with cell strainer cap (Falcon), and plated at 5e4 live cells per 2 cm^2. Media were changed every 48 hours and cells were cultured for six days, at which time staining for alkaline phosphatase was performed with leukocyte alkaline phosphatase kit (Sigma-Aldrich) as described and plates were visually inspected for phosphatase-positive colonies. This strategy represents the most common implementation of the colony formation assay. However, concerns regarding the cell death normally encountered during passaging prompted another approach for stricter assessment. In the second iteration, cells were treated for 24 hours, washed twice with 0.5 mL D-PBS, and media refreshed with E8. Thereafter, media were replaced daily for six days at which point staining for alkaline phosphatase activity was performed. […] Elimination of hiPSC from co-cultures with differentiated cells was performed with human fibroblasts and day 10 cardiomyocytes derived from hiPSC. hiPSC (DF6-9-9T) were plated at concentrations ranging from 100-10,000 live cells per well with human fibroblasts (1.75e5 cells) or day 10 differentiated cardiomyocytes (3.75e5 cells) in E8 and Y-27632 per 9.6 cm^2. […] Six days after plating, staining for alkaline phosphatase activity was performed. […] Imaging of wells was performed with a Sony Cyber-shot DSC-TX30 and individual colonies with a Nikon stereoscope.

[7] = test system: hiPSC; assay: Extracellular flux analysis (ECAR, OCR); format: cell-based, human
Procedure: Extracellular Flux Analysis: hiPSC were plated at 6e4 cells per well on specialized microplate (Seahorse Bioscience) as previously described with several exceptions. Extracellular flux analysis was performed on hiPSC 48 hours post-plating using Seahorse Bioscience XF24 Analyzer. […] The microplate was equilibrated in non-CO2 incubator for 1.5 h, and analyzed for 16 h in Seahorse Bioscience XF24 Analyzer. Assay medium consists of basal E8 reagents with the following exceptions: basal DMEM F-12 without phenol red (Gibco), no sodium bicarbonate, and 2.5 mM GlutaMAX™ (Gibco) and 15 mM Hepes (Gibco). Assay medium was adjusted to pH 7.4 at 37° C. prior to use. Extracellular acidification rate (ECAR) and basal oxygen consumption rate (OCR) were collected approximately every 60 minutes. Treatments were normalized to baseline media control value and are represented as average of thee biological replicates.

[8] = test system: sub-confluent hiPSC; assay: Glucose uptake assay ([3H]2-deoxyglucose); format: cell-based, human; conditions: 1 hour of treatment; 2.5 μM STF-31, 30 μM WZB117
Procedure: For 1 hour treatment, cells were placed in Krebs-Ringer Hepes (KRH) containing treatment at 37° C. in a humidified cell incubator with 5% CO2. For 15, 18, and 24 hour treatments, cells were treated in E8 medium for 14, 17, and 23 hours, respectively, at which point media was changed to KRH buffer containing specific treatment for 1 hour. After specified treatment time, glucose uptake was performed with 0.5 μCi [^3H]2-deoxyglucose for 5 min at 37° C. as previously described. Uptake data were normalized to protein concentration measured with Lowry method.

[9] = test system: sub-confluent hiPSC; assay: Immunoblot analysis of p-AMPK, AMPK, cleaved caspase-3 and -9; format: cell-based, human
Procedure: Immunoblot Analysis: Non-adherent cells were collected by centrifugation, adherent cells were washed once with d-PBS and lysed in Laemmli buffer, combined with non-adherent cell pellet, and heated at 95° C. for 5 minutes. Protein concentration was measured using the Qubit protein assay (Life Technologies). 25 μg of total protein was separated by SDS-PAGE, transferred to nitrocellulose membrane (GE Healthcare Life Sciences) and blocked according to the manufacturer's instructions. Membranes were incubated overnight at 4° C. with the following dilutions of primary antibodies: rabbit anti-cleaved caspase-3 (1:500), rabbit anti-caspase-9 (1:1000), rabbit anti-phospho-AMPK (1:1000), and rabbit anti-AMPK (1:1,000) from Cell Signaling Technology, and mouse anti-GAPDH (1:10,000) from Life Technologies. Membranes were then incubated with secondary antibodies for 45 minutes at the following concentrations: donkey anti-mouse-horseradish peroxidase (1:5,000) and donkey anti-rabbit-horseradish peroxidase (1:7,000) from Jackson Immunoresearch Laboratories, Inc., followed by detection using enhanced chemiluminescence.

[10] = test system: sub-confluent hiPSC; assay: Cleaved caspase-3/7 fluorescence based assay; format: cell-based, human; conditions: after initiation of treatment; 2.5 μM STF-31, 30 μM WZB117
[11] = test system: PAX6 positive neural progenitor cells; format: cell-based; conditions: 72 hours continuous STF-31 plus exogenous NA
Source text: Data expressed as mean+S.D. (n=4); p<0.05, **p<0.01, ***p<0.001. […] Data expressed as mean+S.D. (n=4), *p<0.05, **p<0.01, ***p<0.001.

[12] = sub-confluent cells, 30 μM WZB117, 20 μM PluriSIn

In the case of `O=C(/C=C/c1cccnc1)NCCCCC1CCN(C(=O)c2ccccc2)CC1` [FK866], the “toxicity to human pluripotent stem cells relative to STF-31” value [1] is reported as “toxic to human pluripotent stem cells at lower concentrations than STF-31”.

In the case of `O=C(NNc1ccccc1)c1ccncc1` [PluriSIn], the “cell viability (SYTOX Green)” value [2] is reported as “no significant reduction”, the live/dead staining [3] is reported as “not toxic” and the “elimination of hiPSC” value ([4]; 30 μM WZB117, 20 μM PluriSIn) is reported as “eliminated sub-confluent hiPSC”. The “cell death with increasing concentrations” value ([4]; confluent cells, 20-40 μM) was “did not result in cell death”, the toxicity ([4]; confluent cells, 20 μM PluriSIn) was “did not induce significant toxicity” and the toxicity [4, 12] was “only effective on sub-confluent cells”. For the same compound, the “morphology of hiPSC” value [5] was “minimal alterations in the morphology” and the “formation of alkaline phosphatase-positive colonies” value [6] was “did not prevent colony growth”.

In the case of `O=C(Oc1cccc(F)c1OC(=O)c1cccc(O)c1)c1cccc(O)c1` [WZB117], the “cell viability (SYTOX Green)” value [2] is reported as “no significant reduction”, the live/dead staining [3] is reported as “not toxic” and the “elimination of hiPSC” value ([4]; 30 μM WZB117, 20 μM PluriSIn) is reported as “eliminated sub-confluent hiPSC”. The toxicity ([4]; confluent cells treated 24 hours post-plating, 30 μM WZB117) was “toxic”, the toxicity ([4]; confluent cells treated 96 hours post-plating, 30 μM WZB117) was “significantly less toxic” and the toxicity [4, 12] was “toxic”. The “morphology of hiPSC” value [5] was “morphological changes such as cell swelling”, the “formation of alkaline phosphatase-positive colonies” value [6] was “did not prevent colony growth” and the “time before reductions in OCR” value ([7]; 2.5 μM STF-31, 30 μM WZB117) was ≤ 8 h. For the same compound, the “effect on ECAR” value ([7]; 30 μM WZB117) was “decrease in ECAR by the earliest timepoint measured”, the “decrease in glucose uptake” value [8] was 20% and the “time at which cleaved caspase-3 and -9 are observed” value ([9]; 2.5 μM STF-31, 30 μM WZB117) was 12 h. The “time by which total levels of AMPK decreased” value ([9]; 30 μM WZB117) was ≤ 24 h, the “time at which p-AMPK is detected/increased” value ([9]; post-treatment, 2.5 μM STF-31, 30 μM WZB117) was 12 h and the “time of induction of caspase-3/7 activity” value [10] was 12 h.

`NC(=O)c1cccnc1` [nicotinamide] was tested, and the “rescue of STF-31 mediated toxicity” value ([4]; 10 and 100 μM nicotinamide, data not shown) was “failed to rescue”.

In the case of `O=C(O)c1cccnc1` [nicotinic acid], the “rescue of cell death caused by STF-31” value [11] is reported as “can be rescued”.
